The supplement of paper PMC10307832

Legend:
Experiment in all cases: relative viability (nuclei count vs DMSO), 5 days (fraction); higher = more cells survive
AZ628 + Dasatinib = compound: CC1=C(C=C(C=C1)NC(=O)C2=CC(=CC=C2)C(C)(C)C#N)NC3=CC4=C(C=C3)N=CN(C4=O)C [AZ628] + Cc1nc(Nc2ncc(C(=O)Nc3c(C)cccc3Cl)s2)cc(N2CCN(CCO)CC2)n1 [Dasatinib] (partner 0.075 µM)
Method in brief: (§1)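 Relative viability divides the nuclei count in treated wells by that in vehicle wells. Lung cancer cell lines were seeded in 1536-well plates, dosed by pin tool the next day, and fixed and stained after 5 days in one step with final 0.05% Triton X-100, 1% formaldehyde and 1 ug/ml Hoechst. Dosing was a single drug or a fixed anchor-drug dose plus five library-drug doses (not always all listed) in √10 steps, and values are medians of duplicate plates imaged at 4×.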

AZ628 + AZD7762 = compound: CC1=C(C=C(C=C1)NC(=O)C2=CC(=CC=C2)C(C)(C)C#N)NC3=CC4=C(C=C3)N=CN(C4=O)C [AZ628] + NC(=O)Nc1cc(-c2cccc(F)c2)sc1C(=O)N[C@H]1CCCNC1 [AZD7762] (partner 0.2 µM)
Method in brief: as §1

QS11 + Dasatinib = compound: C1CC2=C(C1)C=C(C=C2)OC3=NC(=C4C(=N3)N(C=N4)CC5=CC=C(C=C5)C6=CC=CC=C6)N[C@@H](CC7=CC=CC=C7)CO [QS11] + Cc1nc(Nc2ncc(C(=O)Nc3c(C)cccc3Cl)s2)cc(N2CCN(CCO)CC2)n1 [Dasatinib] (partner 0.075 µM)
Method in brief: as §1

AZ628 + Pictilisib = compound: CC1=C(C=C(C=C1)NC(=O)C2=CC(=CC=C2)C(C)(C)C#N)NC3=CC4=C(C=C3)N=CN(C4=O)C [AZ628] + CS(=O)(=O)N1CCN(Cc2cc3nc(-c4cccc5[nH]ncc45)nc(N4CCOCC4)c3s2)CC1 [Pictilisib] (partner 1 µM)
Method in brief: as §1

NCI-H522
relative viability (AZ628 + Dasatinib; first compound 0.08 µM): 0.758
relative viability (AZ628 + Dasatinib; first compound 0.253 µM): 0.952
relative viability (AZ628 + Dasatinib; first compound 0.8 µM): 0.732
relative viability (AZ628 + Dasatinib; first compound 2.53 µM): 0.919
relative viability (AZ628 + Dasatinib; first compound 8 µM): 0.731
relative viability (AZ628 + AZD7762; first compound 0.08 µM): 0.826
relative viability (AZ628 + AZD7762; first compound 0.253 µM): 0.721
relative viability (AZ628 + AZD7762; first compound 0.8 µM): 0.749
relative viability (AZ628 + AZD7762; first compound 2.53 µM): 0.863
relative viability (AZ628 + AZD7762; first compound 8 µM): 0.708
relative viability (QS11 + Dasatinib; first compound 0.08 µM): 0.857
relative viability (QS11 + Dasatinib; first compound 0.253 µM): 0.826
relative viability (QS11 + Dasatinib; first compound 0.8 µM): 0.922
relative viability (QS11 + Dasatinib; first compound 2.53 µM): 0.975
relative viability (QS11 + Dasatinib; first compound 8 µM): 1.07

SK-MES-1
relative viability (AZ628 + Dasatinib; first compound 0.08 µM): 0.347
relative viability (AZ628 + Dasatinib; first compound 0.253 µM): 0.342
relative viability (AZ628 + Dasatinib; first compound 0.8 µM): 0.287
relative viability (AZ628 + Dasatinib; first compound 2.53 µM): 0.338
relative viability (AZ628 + Dasatinib; first compound 8 µM): 0.218
relative viability (QS11 + Dasatinib; first compound 0.08 µM): 0.374
relative viability (QS11 + Dasatinib; first compound 0.253 µM): 0.307
relative viability (QS11 + Dasatinib; first compound 0.8 µM): 0.425
relative viability (QS11 + Dasatinib; first compound 2.53 µM): 0.326
relative viability (QS11 + Dasatinib; first compound 8 µM): 0.297
relative viability (AZ628 + Pictilisib; first compound 0.08 µM): 0.337
relative viability (AZ628 + Pictilisib; first compound 0.253 µM): 0.372
relative viability (AZ628 + Pictilisib; first compound 0.8 µM): 0.28
relative viability (AZ628 + Pictilisib; first compound 2.53 µM): 0.327
relative viability (AZ628 + Pictilisib; first compound 8 µM): 0.329

UMC-11
relative viability (AZ628 + Dasatinib; first compound 0.08 µM): 0.659
relative viability (AZ628 + Dasatinib; first compound 0.253 µM): 0.448
relative viability (AZ628 + Dasatinib; first compound 0.8 µM): 0.474
relative viability (AZ628 + Dasatinib; first compound 2.53 µM): 0.5
relative viability (AZ628 + Dasatinib; first compound 8 µM): 0.47
relative viability (QS11 + Dasatinib; first compound 0.08 µM): 0.473
relative viability (QS11 + Dasatinib; first compound 0.253 µM): 0.5
relative viability (QS11 + Dasatinib; first compound 0.8 µM): 0.494
relative viability (QS11 + Dasatinib; first compound 2.53 µM): 0.583
relative viability (QS11 + Dasatinib; first compound 8 µM): 0.681
relative viability (AZ628 + Pictilisib; first compound 0.08 µM): 0.976
relative viability (AZ628 + Pictilisib; first compound 0.253 µM): 0.805
relative viability (AZ628 + Pictilisib; first compound 0.8 µM): 0.845
relative viability (AZ628 + Pictilisib; first compound 2.53 µM): 0.752
relative viability (AZ628 + Pictilisib; first compound 8 µM): 0.76

LK-2
relative viability (AZ628 + Dasatinib; first compound 0.08 µM): 0.311
relative viability (AZ628 + Dasatinib; first compound 0.253 µM): 0.288
relative viability (AZ628 + Dasatinib; first compound 0.8 µM): 0.204
relative viability (AZ628 + Dasatinib; first compound 2.53 µM): 0.23
relative viability (AZ628 + Dasatinib; first compound 8 µM): 0.212
relative viability (AZ628 + AZD7762; first compound 0.08 µM): 0.526
relative viability (AZ628 + AZD7762; first compound 0.253 µM): 0.354
relative viability (AZ628 + AZD7762; first compound 0.8 µM): 0.273
relative viability (AZ628 + AZD7762; first compound 2.53 µM): 0.357
relative viability (AZ628 + AZD7762; first compound 8 µM): 0.259
relative viability (QS11 + Dasatinib; first compound 0.08 µM): 0.287
relative viability (QS11 + Dasatinib; first compound 0.253 µM): 0.321
relative viability (QS11 + Dasatinib; first compound 0.8 µM): 0.317
relative viability (QS11 + Dasatinib; first compound 2.53 µM): 0.268
relative viability (QS11 + Dasatinib; first compound 8 µM): 0.306
relative viability (AZ628 + Pictilisib; first compound 0.08 µM): 0.577
relative viability (AZ628 + Pictilisib; first compound 0.253 µM): 0.824
relative viability (AZ628 + Pictilisib; first compound 0.8 µM): 0.443
relative viability (AZ628 + Pictilisib; first compound 2.53 µM): 0.481
relative viability (AZ628 + Pictilisib; first compound 8 µM): 0.311

CAL-12T
relative viability (AZ628 + Dasatinib; first compound 0.08 µM): 0.385
relative viability (AZ628 + Dasatinib; first compound 0.253 µM): 0.336
relative viability (AZ628 + Dasatinib; first compound 0.8 µM): 0.255
relative viability (AZ628 + Dasatinib; first compound 2.53 µM): 0.271
relative viability (AZ628 + Dasatinib; first compound 8 µM): 0.278
relative viability (AZ628 + AZD7762; first compound 0.08 µM): 0.806
relative viability (AZ628 + AZD7762; first compound 0.253 µM): 0.622
relative viability (AZ628 + AZD7762; first compound 0.8 µM): 0.561
relative viability (AZ628 + AZD7762; first compound 2.53 µM): 0.656
relative viability (AZ628 + AZD7762; first compound 8 µM): 0.501
relative viability (QS11 + Dasatinib; first compound 0.08 µM): 0.4
relative viability (QS11 + Dasatinib; first compound 0.253 µM): 0.365
relative viability (QS11 + Dasatinib; first compound 0.8 µM): 0.466
relative viability (QS11 + Dasatinib; first compound 2.53 µM): 0.368
relative viability (QS11 + Dasatinib; first compound 8 µM): 0.334
relative viability (AZ628 + Pictilisib; first compound 0.08 µM): 0.393
relative viability (AZ628 + Pictilisib; first compound 0.8 µM): 0.416
relative viability (AZ628 + Pictilisib; first compound 2.53 µM): 0.298
relative viability (AZ628 + Pictilisib; first compound 8 µM): 0.505

PC-3 [JPC-3]
relative viability (AZ628 + Dasatinib; first compound 0.08 µM): 0.936
relative viability (AZ628 + Dasatinib; first compound 0.253 µM): 0.893
relative viability (AZ628 + Dasatinib; first compound 0.8 µM): 1.02
relative viability (AZ628 + Dasatinib; first compound 2.53 µM): 1.05
relative viability (AZ628 + Dasatinib; first compound 8 µM): 0.604
relative viability (AZ628 + AZD7762; first compound 0.08 µM): 0.929
relative viability (AZ628 + AZD7762; first compound 0.253 µM): 0.754
relative viability (AZ628 + AZD7762; first compound 0.8 µM): 0.808
relative viability (AZ628 + AZD7762; first compound 2.53 µM): 0.83
relative viability (AZ628 + AZD7762; first compound 8 µM): 0.727
relative viability (QS11 + Dasatinib; first compound 0.08 µM): 0.992
relative viability (QS11 + Dasatinib; first compound 0.253 µM): 1.05
relative viability (QS11 + Dasatinib; first compound 0.8 µM): 0.954
relative viability (QS11 + Dasatinib; first compound 2.53 µM): 1.13
relative viability (QS11 + Dasatinib; first compound 8 µM): 1.08
relative viability (AZ628 + Pictilisib; first compound 0.08 µM): 0.767
relative viability (AZ628 + Pictilisib; first compound 0.253 µM): 0.835
relative viability (AZ628 + Pictilisib; first compound 0.8 µM): 0.861
relative viability (AZ628 + Pictilisib; first compound 2.53 µM): 0.814
relative viability (AZ628 + Pictilisib; first compound 8 µM): 0.525

NCI-H1651
relative viability (AZ628 + Dasatinib; first compound 0.08 µM): 0.517
relative viability (AZ628 + Dasatinib; first compound 0.253 µM): 0.384
relative viability (AZ628 + Dasatinib; first compound 0.8 µM): 0.408
relative viability (AZ628 + Dasatinib; first compound 2.53 µM): 0.392
relative viability (AZ628 + Dasatinib; first compound 8 µM): 0.535
relative viability (AZ628 + AZD7762; first compound 0.08 µM): 0.466
relative viability (AZ628 + AZD7762; first compound 0.253 µM): 0.393
relative viability (AZ628 + AZD7762; first compound 0.8 µM): 0.44
relative viability (AZ628 + AZD7762; first compound 2.53 µM): 0.448
relative viability (AZ628 + AZD7762; first compound 8 µM): 0.318
relative viability (QS11 + Dasatinib; first compound 0.08 µM): 0.486
relative viability (QS11 + Dasatinib; first compound 0.253 µM): 0.306
relative viability (QS11 + Dasatinib; first compound 0.8 µM): 0.333
relative viability (QS11 + Dasatinib; first compound 2.53 µM): 0.495
relative viability (QS11 + Dasatinib; first compound 8 µM): 0.291
relative viability (AZ628 + Pictilisib; first compound 0.08 µM): 0.698
relative viability (AZ628 + Pictilisib; first compound 0.253 µM): 0.685
relative viability (AZ628 + Pictilisib; first compound 0.8 µM): 0.587
relative viability (AZ628 + Pictilisib; first compound 2.53 µM): 0.537
relative viability (AZ628 + Pictilisib; first compound 8 µM): 0.599
